Reference: PubChem BioAssay (NCI)
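Method: 48-hour compound exposure of cells in 96-well plates, five concentrations, linear interpolation of endpoints. Definition used: TGI = concentration required for complete inhibition of growth.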

Tests used:
Experiment in all cases: inhibition of tumour cell growth, NCI panel, 48 h
[1] = system: T-47D breast
[2] = system: HCT-15 colon
[3] = system: UACC-257 melanoma
[4] = system: NCI-H522 lung
[5] = system: MCF7 breast
[6] = system: A549 NSCLC
[7] = system: MDA-MB-231 breast
[8] = system: RPMI-8226 leukemia
[9] = system: HOP-62 NSCLC
[10] = system: DU-145 prostate

O=S(=O)(c1cccc(C(F)(F)F)c1)N1c2ccccc2-n2cccc2C1c1cccnc1 (stereo not given)
TGI [1]: > 70.4 µM
TGI [2]: > 91.4 µM
TGI [3]: > 54.6 µM
TGI [4]: > 53.6 µM
TGI [5]: > 76 µM
TGI [6]: > 56.4 µM
TGI [7]: > 54.5 µM
TGI [8]: > 57.7 µM
TGI [9]: > 66.8 µM
TGI [10]: > 55.2 µM
